# Data from patent publication US6514911B1, “Substituted oxadiazines useful as pesticides” (Uniroyal Chemical Company, Inc., priority 2002, dated 2003).
# Experiments:
# Format in all cases: in vivo
# [1] = system: velvetleaf (Abutilon theophrasti Medik.) (VL); test: Preemergence herbicide test, soil drench, velvetleaf; settings: 10 lbs/A (11.2 kg/ha) soil drench, two weeks after treatment, vs untreated checks; for pest or weed control at 11208.5 g/ha: Abutilon theophrasti, 336 h, read-out: Percent Weed Control VL
# Procedure: (§1) To illustrate the effectiveness of the previously described substituted oxadiazines of this invention as preemergence herbicides, 300 mg of the chemical was dissolved in a composition comprising 10 mL acetone to which 30 mg of tile emulsifying agent, ethoxylated sorbitan monolaurate, was added. The solution was diluted to 100 mL with distilled water. Ten milliliters of this 3000 ppm solution was diluted to 250 ppm with distilled water. The chemical was applied at the rate of 10 pounds/acre (11.2 kg/ha) by drenchings 46 mL of the 250 ppm solution on the surface of soil in 4½ inch (11.25 cm) plastic pots wherein seeds of the following weeds had been planted: velvetleaf (Abutilon theophrasti Medik.) (VL), The percent control of the weeds compared to untreated checks was determined two weeks after treatment. TABLE 1 summarizes the results achieved with compounds formulated as indicated above, and the data clearly indicate the good to excellent herbicidal efficacy of compositions of this invention.
# [2] = system: prickly sida (Sida spinosa L.) (PS); test: Preemergence herbicide test, soil drench, prickly sida; settings: two weeks after treatment
# Procedure: To illustrate the effectiveness of the previously described substituted oxadiazines of this invention as preemergence herbicides, 300 mg of the chemical was dissolved in a composition comprising 10 mL acetone to which 30 mg of tile emulsifying agent, ethoxylated sorbitan monolaurate, was added. The solution was diluted to 100 mL with distilled water. Ten milliliters of this 3000 ppm solution was diluted to 250 ppm with distilled water. […]
# prickly sida (Sida spinosa L.) (PS),
# (§2) The percent control of the weeds compared to untreated checks was determined two weeks after treatment. TABLE 1 summarizes the results achieved with compounds formulated as indicated above, and the data clearly indicate the good to excellent herbicidal efficacy of compositions of this invention.
# [3] = system: tall morningglory (Ipomoea purpurea (L.) Roth) (TM); test: Preemergence herbicide test, soil drench, tall morningglory; settings: 10 lbs/A (11.2 kg/ha) soil drench, two weeks after treatment, vs untreated checks; for pest or weed control at 11208.5 g/ha: Ipomoea, 336 h, read-out: Percent Weed Control TM
# Procedure: as §1, with “tall morningglory (Ipomoea purpurea (L.) Roth) (TM),” for “velvetleaf (Abutilon theophrasti Medik.) (VL),”
# [4] = system: barnyardgrass (Echinochloa crus-galli (L.) Beauv.) (BG); test: Preemergence herbicide test, soil drench, barnyardgrass; settings: two weeks after treatment
# Procedure: as §1, with “barnyardgrass (Echinochloa crus-galli (L.) Beauv.) (BG), and” for “velvetleaf (Abutilon theophrasti Medik.) (VL),”
# [5] = system: switchgrass (Panicum virgahim L.) (SG); test: Preemergence herbicide test, soil drench, switchgrass; settings: two weeks after treatment; for pest or weed control at 11208.5 g/ha / Percent Weed Control SG: 10 lbs/A (11.2 kg/ha) soil drench, vs untreated checks
# Procedure: as §1, with “planted:” for “planted: velvetleaf (Abutilon theophrasti Medik.) (VL), The percent control of the weeds compared to untreated checks was determined two weeks after treatment. TABLE 1 summarizes the results achieved with compounds formulated as indicated above, and the data clearly indicate the good to excellent herbicidal efficacy of compositions of this invention.”
# switchgrass (Panicum virgahim L.) (SG),
# as §2
# [6] = system: green foxtail (Setaria virdis (L.) Beauv.) (GF); test: Preemergence herbicide test, soil drench, green foxtail; settings: two weeks after treatment
# Procedure: as §1, with “41⁄2” for “4½”, “green foxtail (Setaria […].) Beauv.) (GF).” for “velvetleaf (Abutilon theophrasti Medik.) (VL),”
# [7] = Sida spinosa, 336 h, 10 lbs/A (11.2 kg/ha) soil drench, vs untreated checks, read-out: Percent Weed Control PS
# [8] = Echinochloa crus-galli, 336 h, 10 lbs/A (11.2 kg/ha) soil drench, vs untreated checks, read-out: Percent Weed Control BG
# [9] = Panicum, 336 h, read-out: Percent Weed Control SG
# [10] = Setaria, 336 h, 10 lbs/A (11.2 kg/ha) soil drench, vs untreated checks, read-out: Percent Weed Control GF
# [11] = 10 lbs/A (11.2 kg/ha) soil drench, vs untreated checks
# [12] = 5 lbs/A (footnote for 32 and 33)
compound,measurement,setting,value
"FC(F)(F)C1=NC(C(F)(F)F)(C(F)(F)F)N=C(c2ccccc2)O1 [Compound 1, 2-phenyl-4,4,6-tris(trifluoromethyl)-4H-1,3,5-oxadiazine]",pest or weed control at 11208.5 g/ha,[1],100%
same,pest or weed control at 11208.5 g/ha,[2]; [7],100%
same,pest or weed control at 11208.5 g/ha,[3],100%
same,pest or weed control at 11208.5 g/ha,[4]; [8],0%
same,pest or weed control at 11208.5 g/ha,[5]; [9],0%
same,pest or weed control at 11208.5 g/ha,[6]; [10],0%
"FC(F)(F)C1=NC(C(F)(F)F)(C(F)(F)F)N=C(c2ccc(Br)cc2)O1 [Compound 2, 2-(4-bromophenyl)-4,4,6-tris(trifluoromethyl)-4H-1,3,5-oxadiazine]",pest or weed control at 11208.5 g/ha,[1],100%
same,pest or weed control at 11208.5 g/ha,[2]; [7],100%
same,pest or weed control at 11208.5 g/ha,[3],100%
same,pest or weed control at 11208.5 g/ha,[4]; [8],100%
same,pest or weed control at 11208.5 g/ha,[5]; [9],100%
same,pest or weed control at 11208.5 g/ha,[6]; [10],100%
"Fc1ccccc1C1=NC(C(F)(F)F)(C(F)(F)F)N=C(C(F)(F)F)O1 [Compound 3, 2-(2-fluorophenyl)-4,4,6-tris(trifluoromethyl)-4H-1,3,5-oxadiazine]",pest or weed control at 11208.5 g/ha,[1],100%
same,pest or weed control at 11208.5 g/ha,[2]; [7],0%
same,pest or weed control at 11208.5 g/ha,[3],0%
same,pest or weed control at 11208.5 g/ha,[4]; [8],0%
same,pest or weed control at 11208.5 g/ha,[5]; [9],30%
same,pest or weed control at 11208.5 g/ha,[6]; [10],40%
"FC(F)(F)C1=NC(C(F)(F)F)(C(F)(F)F)N=C(c2cccc(C(F)(F)F)c2)O1 [Compound 7, 2,4,4-tris(trifluoromethyl)-6-{(3-trifluoromethyl)phenyl}-4H-1,3,5-oxadiazine]",Percent Weed Control VL,[1],100%
same,Percent Weed Control PS,[2]; [11],100%
same,Percent Weed Control TM,[3],100%
same,Percent Weed Control BG,[4]; [11],100%
same,Percent Weed Control SG,[5],100%
same,Percent Weed Control GF,[6]; [11],100%
"FC(F)(F)Oc1ccc(C2=NC(C(F)(F)F)(C(F)(F)F)N=C(C(F)(F)F)O2)cc1 [Compound 8, 2-{4-(trifluoromethoxy)phenyl}-4,4,6-tris(trifluoromethyl)-4H-1,3,5-oxadiazine]",pest or weed control at 11208.5 g/ha,[1],100%
same,pest or weed control at 11208.5 g/ha,[2]; [7],100%
same,pest or weed control at 11208.5 g/ha,[3],100%
same,pest or weed control at 11208.5 g/ha,[4]; [8],100%
same,pest or weed control at 11208.5 g/ha,[5]; [9],100%
same,pest or weed control at 11208.5 g/ha,[6]; [10],100%
"Nc1ccc(C2=NC(C(F)(F)F)(C(F)(F)F)N=C(C(F)(F)F)O2)cc1 [Compound 9, 2-(4-aminophenyl)-4,4,6-tris(trifluoromethyl)-4H-1,3,5-oxadiazine]",pest or weed control at 11208.5 g/ha,[1],90%
same,pest or weed control at 11208.5 g/ha,[2]; [7],0%
same,pest or weed control at 11208.5 g/ha,[3],0%
same,pest or weed control at 11208.5 g/ha,[4]; [8],0%
same,pest or weed control at 11208.5 g/ha,[5]; [9],90%
same,pest or weed control at 11208.5 g/ha,[6]; [10],90%
"O=[N+]([O-])c1ccc(C2=NC(C(F)(F)F)(C(F)(F)F)N=C(C(F)(F)F)O2)cc1 [Compound 10, 2-(4-nitrophenyl)-4,4,6-tris(trifluoromethyl)-4H-1,3,5-oxadiazine]",pest or weed control at 11208.5 g/ha,[1],80%
same,pest or weed control at 11208.5 g/ha,[2]; [7],80%
same,pest or weed control at 11208.5 g/ha,[3],50%
same,pest or weed control at 11208.5 g/ha,[4]; [8],80%
same,pest or weed control at 11208.5 g/ha,[5]; [9],80%
same,pest or weed control at 11208.5 g/ha,[6]; [10],80%
"FC(F)(F)C(F)(F)C1=NC(C(F)(F)F)(C(F)(F)F)N=C(c2ccccc2)O1 [Compound 11, 2-(pentafluoroethyl)-6-phenyl-4,4-bis(trifluoromethyl)-4H-1,3,5-oxadiazine]",pest or weed control at 11208.5 g/ha,[1],100%
same,pest or weed control at 11208.5 g/ha,[2]; [7],100%
same,pest or weed control at 11208.5 g/ha,[3],100%
same,pest or weed control at 11208.5 g/ha,[4]; [8],0%
same,pest or weed control at 11208.5 g/ha,[5]; [9],0%
same,pest or weed control at 11208.5 g/ha,[6]; [10],50%
FC(F)(F)c1ccc(C2=NC(C(F)(F)F)(C(F)(F)F)N=C(C(F)(F)C(F)(F)F)O2)cc1 [Compound 15],Percent Weed Control VL,[1],100%
same,Percent Weed Control PS,[2]; [11],100%
same,Percent Weed Control TM,[3],100%
same,Percent Weed Control BG,[4]; [11],100%
same,Percent Weed Control SG,[5],100%
same,Percent Weed Control GF,[6]; [11],100%
"Fc1ccc(C2=NC(C(F)(F)F)(C(F)(F)F)N=C(C(F)(F)C(F)(F)F)O2)cc1 [Compound 17, 2-(4-fluorophenyl)-6-(pentafluoroethyl)-4,4-bis(trifluoromethyl)-4H-1,3,5-oxadiazine]",pest or weed control at 11208.5 g/ha,[1],100%
same,pest or weed control at 11208.5 g/ha,[2]; [7],100%
same,pest or weed control at 11208.5 g/ha,[3],100%
same,pest or weed control at 11208.5 g/ha,[4]; [8],100%
same,pest or weed control at 11208.5 g/ha,[5]; [9],50%
same,pest or weed control at 11208.5 g/ha,[6]; [10],50%
"O=Cc1ccc(C2=NC(C(F)(F)F)(C(F)(F)F)N=C(C(F)(F)C(F)(F)F)O2)cc1 [Compound 31, 4-{6-(pentafluoroethyl)-4,4-bis(trifluoromethyl)-4H-1,3,5-oxadiazin-2-yl}-benzaldehyde]",pest or weed control at 11208.5 g/ha,[4]; [8],100%
"FC(F)C1=NC(C(F)(F)F)(C(F)(F)F)N=C(c2cccc(C(F)(F)F)c2)O1 [Compound 32, 2-(difluoromethyl)-4,4-bis(trifluoromethyl)-6-(3-trifluoromethylphenyl)-4H-1,3,5-oxadiazine]",pest or weed control at 5604.25 g/ha,"[2]; Sida spinosa, pre-emergence, 336 h, 5 lbs/A (footnote for 32 and 33), read-out: Percent Weed Control PS",100%
same,pest or weed control at 5604.25 g/ha,"[4]; Echinochloa crus-galli, pre-emergence, 336 h, 5 lbs/A (footnote for 32 and 33), read-out: Percent Weed Control BG",80%
same,pest or weed control at 5604.25 g/ha,"[5]; Panicum, pre-emergence, 336 h, 5 lbs/A (footnote for 32 and 33), read-out: Percent Weed Control SG",0%
same,pest or weed control at 5604.25 g/ha,"[6]; Setaria, pre-emergence, 336 h, 5 lbs/A (footnote for 32 and 33), read-out: Percent Weed Control GF",100%
"FC(F)C1=NC(C(F)(F)F)(C(F)(F)F)N=C(c2ccc(C(F)(F)F)cc2)O1 [Compound 33, 21-(dfluoromethyl)-4,4-bis(trifluoromethyl)-6-(4-trifluoromethylphenyl)-4H-1,3,5-oxadiazine]",Percent Weed Control PS,[2]; [12],100%
same,Percent Weed Control BG,[4]; [12],20%
same,Percent Weed Control GF,[6]; [12],40%
